Measured values as given in paper PMC7316994, “In Vitro Pharmacological Profile of a New Small Molecule Bradykinin B2 Receptor Antagonist” (Frontiers in Pharmacology, 2020).
“Also recorded” adds a separate entry of the source.

Assays:
Endothelin ETA = target: T1, Endothelin ETA (Homo sapiens, UniProt P25101); experiment: radioligand binding (Table S2); settings: [125I] Endothelin-1, Human recombinant CHO cells
T1 construct: host or cells: CHO cells

COX2 = target: T2, COX2 (Homo sapiens, UniProt P35354); experiment: enzyme assay (Table S2); assay type: biochemical; settings: Arachidonic acid (2 µM) + ADHP, Fluorimetry
T2 construct: Eurofins (assay provider); host or cells: Sf9 cells
T2 sequence (P35354 18-604): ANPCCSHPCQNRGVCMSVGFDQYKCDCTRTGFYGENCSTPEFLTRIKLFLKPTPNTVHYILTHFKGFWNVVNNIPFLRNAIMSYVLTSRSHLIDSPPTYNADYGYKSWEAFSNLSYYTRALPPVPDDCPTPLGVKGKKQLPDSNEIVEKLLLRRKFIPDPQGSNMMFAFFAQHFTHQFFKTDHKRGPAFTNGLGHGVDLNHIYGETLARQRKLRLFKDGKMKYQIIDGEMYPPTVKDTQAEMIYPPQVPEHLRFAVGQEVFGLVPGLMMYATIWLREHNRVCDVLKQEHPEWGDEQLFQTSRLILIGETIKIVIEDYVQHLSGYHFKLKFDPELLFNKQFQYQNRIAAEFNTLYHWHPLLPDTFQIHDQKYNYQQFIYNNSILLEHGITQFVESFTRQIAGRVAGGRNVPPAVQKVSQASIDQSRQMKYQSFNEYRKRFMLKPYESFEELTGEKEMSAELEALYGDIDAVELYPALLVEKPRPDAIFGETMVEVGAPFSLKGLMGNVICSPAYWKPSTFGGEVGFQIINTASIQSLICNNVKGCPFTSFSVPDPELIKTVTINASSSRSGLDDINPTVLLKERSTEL

PDE5 (non-selective) = PDE5 (non-selective) (Homo sapiens, UniProt O76074); experiment: enzyme assay (Table S2); assay type: biochemical; settings: Human platelets, [3H]cGMP + cGMP (1 µM)
Adenosine A1 = Adenosine A1 (Homo sapiens, UniProt P30542); experiment: functional assay, impedance, CHO cells (Table S2); assay type: cell-based; settings: read-out: % inhibition of reference agonist response @ 10 µM (antagonist effect), CPA (1 nM)
Adenosine A2B = Adenosine A2B (Homo sapiens, UniProt P29275); experiment: radioligand binding (Table S2); settings: read-out: % Inhibition @ 10 µM
Sequence of Adenosine A2B (P29275 whole entry): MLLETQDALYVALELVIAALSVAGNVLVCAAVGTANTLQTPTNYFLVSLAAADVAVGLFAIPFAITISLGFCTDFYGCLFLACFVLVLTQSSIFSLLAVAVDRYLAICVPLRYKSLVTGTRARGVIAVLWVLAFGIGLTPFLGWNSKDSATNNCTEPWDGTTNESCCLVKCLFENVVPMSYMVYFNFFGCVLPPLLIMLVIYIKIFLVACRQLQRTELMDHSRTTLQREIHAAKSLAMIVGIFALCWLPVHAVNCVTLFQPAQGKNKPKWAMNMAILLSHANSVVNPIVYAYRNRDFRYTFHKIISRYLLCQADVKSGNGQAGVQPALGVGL

Adrenergic α1A = Adrenergic α1A (Homo sapiens, UniProt P35348); experiment: radioligand binding (Table S2); settings: read-out: % Inhibition @ 10 µM
Sequence of Adrenergic α1A (P35348 whole entry): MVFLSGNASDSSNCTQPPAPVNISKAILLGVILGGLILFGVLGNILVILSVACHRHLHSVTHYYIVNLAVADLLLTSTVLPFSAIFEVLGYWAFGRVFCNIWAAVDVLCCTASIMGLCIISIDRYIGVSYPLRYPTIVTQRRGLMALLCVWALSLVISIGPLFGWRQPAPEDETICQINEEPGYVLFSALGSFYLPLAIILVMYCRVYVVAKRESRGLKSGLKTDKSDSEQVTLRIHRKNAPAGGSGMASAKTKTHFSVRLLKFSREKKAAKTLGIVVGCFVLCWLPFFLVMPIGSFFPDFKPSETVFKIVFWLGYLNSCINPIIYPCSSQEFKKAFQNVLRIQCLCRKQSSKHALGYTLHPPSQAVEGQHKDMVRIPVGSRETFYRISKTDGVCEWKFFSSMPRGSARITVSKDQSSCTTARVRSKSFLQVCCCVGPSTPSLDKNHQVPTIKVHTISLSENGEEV

[1] = target: T3, Nicotinic N neuronal α4β2 (Homo sapiens, UniProt P17787+P43681); experiment: radioligand binding (Table S2); settings: [3H] Cytisine, Human recombinant SH-SY5Y cells
T3 construct: host or cells: SH-SY5Y cells

Acetylcholinesterase = target: T4, Acetylcholinesterase (Homo sapiens, UniProt P22303); experiment: enzyme assay (Table S2); assay type: biochemical; settings: Acetylthiocholine (400 µM), Photometry
T4 construct: Eurofins (assay provider); host or cells: HEK-293 cells

Bombesin BB1 = target: T5, Bombesin BB1 (Homo sapiens, UniProt P28336); experiment: radioligand binding (Table S2); settings: [125I] [Tyr4]-bombesin, Human recombinant CHO cells
T5 construct: host or cells: CHO cells

PDE3A = PDE3A (Homo sapiens, UniProt Q14432); experiment: enzyme assay (Table S2); assay type: biochemical; settings: [3H]cAMP + cAMP (0.5 µM), Scintillation counting
[2] = target: Gamma-aminobutyric acid GABAB1B (Homo sapiens, UniProt Q9UBS5); experiment: radioligand binding (Table S2); settings: read-out: % Inhibition @ 10 µM
[3] = system: Potassium channel voltage gated KV channel; assay type: binding; settings: [125I] α-dendrotoxin, Rat cerebral cortex
Caco-2 cell monolayer = settings: human, Caco-2, 60 min, 10 µM
Prostanoid EP4 = target: T6, Prostanoid EP4 (Homo sapiens, UniProt P35408); experiment: radioligand binding (Table S2); settings: [3H] Prostaglandin E2, Human recombinant Chem-1 cells
T6 construct: host or cells: Chem-1 cells
T6 sequence (P35408 whole entry): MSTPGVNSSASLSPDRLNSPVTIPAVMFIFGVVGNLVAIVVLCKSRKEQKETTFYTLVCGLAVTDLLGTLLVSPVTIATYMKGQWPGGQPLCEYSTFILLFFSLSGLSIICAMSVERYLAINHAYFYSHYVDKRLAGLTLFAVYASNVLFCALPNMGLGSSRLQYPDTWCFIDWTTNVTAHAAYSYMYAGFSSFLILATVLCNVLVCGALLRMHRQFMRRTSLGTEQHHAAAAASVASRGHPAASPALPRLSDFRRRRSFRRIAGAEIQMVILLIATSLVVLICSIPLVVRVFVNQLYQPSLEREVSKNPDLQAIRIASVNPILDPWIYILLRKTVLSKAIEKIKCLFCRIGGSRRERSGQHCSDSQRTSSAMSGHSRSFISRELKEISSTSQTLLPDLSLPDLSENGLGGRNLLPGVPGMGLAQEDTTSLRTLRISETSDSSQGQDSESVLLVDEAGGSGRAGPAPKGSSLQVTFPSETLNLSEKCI

[4] = target: T7, Cysteinyl leukotriene receptor CysLT1 (Homo sapiens, UniProt Q9Y271); experiment: radioligand binding (Table S2); settings: [3H] LTD4, Human recombinant CHO cells
T7 construct: host or cells: CHO cells

[5] = target: Cholecystokinin CCK2 (CCKB) (Homo sapiens, UniProt P32239); experiment: radioligand binding (Table S2); settings: [125I] CCK-8, Human recombinant Chem-1 cells
prostanoid TP receptor = target: T8, prostanoid TP receptor (Homo sapiens, UniProt P21731); experiment: umbilical vein, U-46619-induced contraction; settings: Compound 2 10 μM; Compound 3 1 μM
T8 construct: endogenous human prostanoid TP receptors in the umbilical vein model; from tissue; host or cells: human umbilical vein rings
T8 sequence (P21731 whole entry): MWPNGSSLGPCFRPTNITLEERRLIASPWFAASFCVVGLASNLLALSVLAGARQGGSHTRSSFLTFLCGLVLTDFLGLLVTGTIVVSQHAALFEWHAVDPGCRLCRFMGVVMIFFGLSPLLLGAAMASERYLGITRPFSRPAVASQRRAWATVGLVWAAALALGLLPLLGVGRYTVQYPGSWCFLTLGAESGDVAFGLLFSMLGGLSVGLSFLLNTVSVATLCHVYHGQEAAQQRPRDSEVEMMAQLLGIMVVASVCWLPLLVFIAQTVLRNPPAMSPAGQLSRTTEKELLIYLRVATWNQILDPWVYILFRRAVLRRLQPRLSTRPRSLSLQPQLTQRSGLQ
Description: The local ethics committee (CHU de Québec-Université Laval) had approved the project (File no. 2017-3720). Umbilical cords were obtained following elective caesarean sections; all problematic deliveries are excluded. Informed consent was obtained from the mothers. The cords were transported from the maternity ward to the laboratory in sterile Hank's balanced salt solution containing penicillin and streptomycin. Segments of umbilical veins were dissected carefully from the cords and a metal rod was inserted in the lumen. Excess connective tissue was excised and rings (2–3 mm wide) were cut. Rings of umbilical veins were suspended in 5-mL organ chambers containing oxygenated (95% O2, 5% CO2) and warmed (37°C) Krebs' solution between a metal hook and a thread loop. This solution had the following composition: NaCl 117.5 mM, KCl 4.7 mM, KH2PO4 1.2 mM, MgSO4 1.18 mM, CaCI2 2.5 mM, NaHCO3 25.0 mM, and D-glucose 5.5 mM. A baseline of one gram-weight was applied to these preparations. Changes of tension were recorded by using isometric transducers (model 52-9545, Harvard Bioscience, South Natick MA). Eight tissue baths are operated in parallel.
For this purpose, contractile responses to serotonin, acting on the 5-HT2A receptor, and U-46619, acting at the prostanoid TP receptor, were measured ([Rogines-Velo et al., 2002]; [Daray et al., 2003]).

Histamine H2 = target: T9, Histamine H2 (Homo sapiens, UniProt P25021); experiment: radioligand binding (Table S2); settings: [125I] APT, Human recombinant CHO cells
T9 construct: host or cells: CHO cells

[6] = target: T10, Melanin-concentrating hormone receptor MCH1 (Homo sapiens, UniProt Q99705); experiment: radioligand binding (Table S2); settings: [125I] [Phe13, Tyr19]-MCH, Human recombinant CHO cells
T10 construct: host or cells: CHO cells
T10 sequence (Q99705 whole entry): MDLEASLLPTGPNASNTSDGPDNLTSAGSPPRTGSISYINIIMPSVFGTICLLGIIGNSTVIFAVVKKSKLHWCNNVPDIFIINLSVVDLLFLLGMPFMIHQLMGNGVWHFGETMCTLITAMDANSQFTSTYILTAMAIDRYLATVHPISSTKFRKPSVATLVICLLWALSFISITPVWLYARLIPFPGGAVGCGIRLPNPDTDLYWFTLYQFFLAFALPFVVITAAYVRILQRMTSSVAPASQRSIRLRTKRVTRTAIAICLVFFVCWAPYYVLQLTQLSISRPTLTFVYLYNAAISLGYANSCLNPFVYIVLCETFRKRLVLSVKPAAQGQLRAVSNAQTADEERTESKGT

Orexin OX2 = target: T11, Orexin OX2 (Homo sapiens, UniProt O43614); experiment: radioligand binding (Table S2); settings: [125I] Orexin A, Human recombinant HEK-293 cells
T11 construct: host or cells: HEK-293 cells

Angiotensine AT2 = Angiotensine AT2 (Homo sapiens, UniProt P50052); experiment: radioligand binding (Table S2); settings: read-out: % Inhibition @ 10 µM
Sequence of Angiotensine AT2 (P50052 whole entry): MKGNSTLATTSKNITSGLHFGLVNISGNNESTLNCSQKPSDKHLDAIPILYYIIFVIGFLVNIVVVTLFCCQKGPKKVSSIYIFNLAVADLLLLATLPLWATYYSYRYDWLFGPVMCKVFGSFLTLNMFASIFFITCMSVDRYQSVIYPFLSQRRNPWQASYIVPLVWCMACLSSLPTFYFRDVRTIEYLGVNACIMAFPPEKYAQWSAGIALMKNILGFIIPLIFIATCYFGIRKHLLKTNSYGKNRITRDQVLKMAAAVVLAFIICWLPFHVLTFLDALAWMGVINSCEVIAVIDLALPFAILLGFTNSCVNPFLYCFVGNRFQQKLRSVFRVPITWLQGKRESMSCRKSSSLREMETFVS

Histamine H1 = target: T12, Histamine H1 (Homo sapiens, UniProt P35367); experiment: radioligand binding (Table S2); settings: [3H] Pyrilamine, Human recombinant HEK-293 cells
T12 construct: host or cells: HEK-293 cells
T12 sequence (P35367 whole entry): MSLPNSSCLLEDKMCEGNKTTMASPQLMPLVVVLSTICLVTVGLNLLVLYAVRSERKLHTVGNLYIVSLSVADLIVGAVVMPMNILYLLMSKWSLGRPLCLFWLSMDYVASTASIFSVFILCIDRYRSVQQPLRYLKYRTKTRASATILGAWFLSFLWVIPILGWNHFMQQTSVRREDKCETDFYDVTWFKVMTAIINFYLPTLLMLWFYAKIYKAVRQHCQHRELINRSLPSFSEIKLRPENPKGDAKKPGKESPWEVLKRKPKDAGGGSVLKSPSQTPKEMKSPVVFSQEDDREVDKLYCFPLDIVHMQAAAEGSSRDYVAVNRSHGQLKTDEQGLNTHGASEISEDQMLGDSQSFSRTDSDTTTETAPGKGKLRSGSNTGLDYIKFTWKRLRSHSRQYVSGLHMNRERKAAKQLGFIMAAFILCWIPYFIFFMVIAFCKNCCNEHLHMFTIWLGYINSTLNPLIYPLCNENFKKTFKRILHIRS

[7] = target: Calcitonin gene related peptide CGRP (Homo sapiens, UniProt O60894+Q16602); experiment: radioligand binding (Table S2); settings: [125I] hCGRPα, Human recombinant CHO cells
Sequence of Calcitonin gene related peptide CGRP (Q16602 23-461): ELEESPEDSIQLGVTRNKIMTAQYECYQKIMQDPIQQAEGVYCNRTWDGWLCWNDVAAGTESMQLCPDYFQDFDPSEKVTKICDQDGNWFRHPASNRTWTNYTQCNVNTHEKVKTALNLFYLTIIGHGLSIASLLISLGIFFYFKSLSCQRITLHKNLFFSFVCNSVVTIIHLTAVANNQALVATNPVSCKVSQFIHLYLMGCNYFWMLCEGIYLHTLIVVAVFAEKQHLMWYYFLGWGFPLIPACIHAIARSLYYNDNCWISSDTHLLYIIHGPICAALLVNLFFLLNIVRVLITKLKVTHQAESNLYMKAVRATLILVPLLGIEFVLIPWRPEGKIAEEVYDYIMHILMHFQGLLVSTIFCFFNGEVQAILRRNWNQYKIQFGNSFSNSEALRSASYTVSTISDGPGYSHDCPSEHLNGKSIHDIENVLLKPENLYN
Sequence of Calcitonin gene related peptide CGRP (O60894 27-148 partner): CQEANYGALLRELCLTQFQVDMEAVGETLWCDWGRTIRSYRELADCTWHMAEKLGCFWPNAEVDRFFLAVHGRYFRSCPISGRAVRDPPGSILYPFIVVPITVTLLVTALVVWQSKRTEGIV

[8] = system: Glutamate ionotropic, AMPA; experiment: radioligand binding (Table S2); settings: [3H] AMPA, Rat cerebral cortex
Muscarinic M5 = Muscarinic M5 (Homo sapiens, UniProt P08912); experiment: radioligand binding (Table S2); settings: read-out: % Inhibition @ 10 µM
Sequence of Muscarinic M5 (P08912 whole entry): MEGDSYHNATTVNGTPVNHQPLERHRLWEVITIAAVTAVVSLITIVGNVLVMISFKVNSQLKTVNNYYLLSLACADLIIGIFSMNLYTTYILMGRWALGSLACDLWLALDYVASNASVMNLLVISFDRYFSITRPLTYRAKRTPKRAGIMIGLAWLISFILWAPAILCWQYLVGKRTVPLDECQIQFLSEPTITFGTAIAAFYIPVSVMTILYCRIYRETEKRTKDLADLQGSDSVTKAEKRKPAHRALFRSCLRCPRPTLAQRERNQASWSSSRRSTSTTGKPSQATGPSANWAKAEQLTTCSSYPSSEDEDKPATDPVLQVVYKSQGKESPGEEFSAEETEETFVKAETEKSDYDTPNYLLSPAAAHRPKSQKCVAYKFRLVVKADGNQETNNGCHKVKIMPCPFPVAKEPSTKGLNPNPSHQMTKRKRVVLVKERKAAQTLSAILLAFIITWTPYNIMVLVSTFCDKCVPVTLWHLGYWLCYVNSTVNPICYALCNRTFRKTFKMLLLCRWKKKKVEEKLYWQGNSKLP

Prostanoid EP1 = target: T13, Prostanoid EP1 (Homo sapiens, UniProt P34995); experiment: radioligand binding (Table S2); settings: [3H] Prostaglandin E2, Human recombinant HEK-293 cells
T13 construct: host or cells: HEK-293 cells

Vasopressin V1a = target: T14, Vasopressin V1a (Homo sapiens, UniProt P37288); experiment: radioligand binding (Table S2); settings: [3H] AVP, Human recombinant CHO cells
T14 construct: host or cells: CHO cells
T14 sequence (P37288 whole entry): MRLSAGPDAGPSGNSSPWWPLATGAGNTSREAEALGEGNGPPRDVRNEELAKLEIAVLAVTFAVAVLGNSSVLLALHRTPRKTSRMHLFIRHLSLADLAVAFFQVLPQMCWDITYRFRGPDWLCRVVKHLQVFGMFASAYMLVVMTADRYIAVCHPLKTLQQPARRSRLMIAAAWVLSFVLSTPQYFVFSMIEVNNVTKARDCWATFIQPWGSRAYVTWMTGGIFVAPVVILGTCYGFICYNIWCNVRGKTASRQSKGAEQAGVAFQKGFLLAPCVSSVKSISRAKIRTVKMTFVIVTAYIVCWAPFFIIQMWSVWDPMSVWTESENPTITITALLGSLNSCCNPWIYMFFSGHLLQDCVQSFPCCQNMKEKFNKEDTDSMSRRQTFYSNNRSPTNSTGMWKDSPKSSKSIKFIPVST

Cc1cc(-c2ncnn2C)c2cccc(OCc3c(Cl)cc(F)cc3[C@H](C)NC(=O)COC(F)F)c2n1 [Compound 3, (S)-N-(1-(3-chloro-5-fluoro-2-((2-methyl-4-(1-methyl-1H-1,2,4-triazol-5-yl)quinolin-8-yloxy)methyl)phenyl)ethyl)-2-(difluoromethoxy)acetamide]
inhibition at 10 µM (Endothelin ETA): -2.1% | inhibition at 10 µM (COX2): -18.8% | inhibition at 10 µM (PDE5 (non-selective)): 15.5% | inhibition at 10 µM (Adenosine A1): -2.3% | inhibition at 10 µM (Adenosine A2B): 3.6% | inhibition at 10 µM (Adrenergic α1A): 13.3% | inhibition at 10 µM [1]: -33.6% | inhibition at 10 µM (Acetylcholinesterase): 8.4% | inhibition at 10 µM (Bombesin BB1): 6.7% | inhibition at 10 µM (PDE3A): 15.9% | inhibition at 10 µM [2]: 9% | % Inhibition @ 10 µM [3]: 2.3% | Caco-2 AB, apparent permeation rate apical to basolateral direction (Caco-2 cell monolayer): > 10^-5 cm/s | inhibition at 10 µM (Prostanoid EP4): 3% | inhibition at 10 µM [4]: -2.2% | inhibition at 10 µM [5]: 1% | effect on U-46619-induced contraction (prostanoid TP receptor): Lack of antagonist effect; also recorded: no functional antagonism was observed | inhibition at 10 µM (Histamine H2): -26.5% | inhibition at 10 µM [6]: 13.4% | inhibition at 10 µM (Orexin OX2): 25.9% | inhibition at 10 µM (Angiotensine AT2): 3.5% | inhibition at 10 µM (Histamine H1): 2.5% | inhibition at 10 µM [7]: -26.1% | % Inhibition @ 10 µM [8]: 3.0% | inhibition at 10 µM (Muscarinic M5): 5.1% | inhibition at 10 µM (Prostanoid EP1): 80% | % Inhibition @ 10 µM (Vasopressin V1a): 84% | inhibition at 10 µM (Vasopressin V1a): 84.1%
